System: Aβ40
Experiment: Assessment of Aβ levels in rat brain and plasma following BACE1 inhibition (Aβ40 ELISA)
Assay type: in vivo
Conditions: 3 hours post dose, vs vehicle
Protocol: Young adult Male Sprague Dawley rats of approximately 250 g weight were purchased from Charles River and received 0-30 mg/kg of vehicle (10% HP betaCD+1M MeSO4, pH 2.5) or test compounds (dissolved in vehicle) only by oral gavage (p.o). The compounds are dosed at a volume of 5 ml/kg. Cohorts of 5-10 animals were established for each treatment condition.
At T=180 minutes after initial dosing the animals were stunned and decapitated with a guillotine. Trunk-blood was sampled in EDTA coated tubes after decapitation of the animal. The blood was centrifuged at 2200 G at 4° C. for 15 minutes and the plasma was collected and frozen at −80° C. The blood was aliquoted for Aβ ELISA and DMPK analysis Immediately following sacrifice, the brain was extracted and split into 2 halves. The right hemibrains were snap frozen on dry ice and stored at −80° C. The left half was dissected; with the front forebrain taken for Aβ ELISA and the remainder used for DMPK analysis. These samples were also snap frozen on dry ice and stored at −80° C. until use for analysis.
The cortex samples were thawed slightly on wet ice before they were homogenized with a small volume dispersing instrument (T10 basic ULTRA-TURRAX®) which was set at speed 5 for approximately 5-7 sec. The tissue was processed in a 10 times volume of the weight, for example 100 mg of tissue was homogenized in 1000 μL of Homogenization buffer. Homogenization buffer: 50 ml Milli Q water+50 nM NaCl+0.2% Diethylamin (DEA)+1 tablet of Complete Protease inhibitor cocktail+1 nM 4-(2-aminoethyl) benzenesulfonyl fluoride hydrochloride irreversible serine protease inhibitor (AEBSF).
After homogenization 450 μL aliquots of the samples are collected into a 1.5 ml Eppendorf tube and placed on wet ice, 0.5% NP-40 (50 ul) was added to all samples and then they were incubated on ice for 30 min. After which all samples were sonicated using an Ultrasonic homogenizer with 20 kHz homogeneous sound (SONOPLUS HD2070, Bandelin Electronic) 10 pulse set at 12-13% power to extract all the Aβ species. The samples were then centrifuged (Ole Dich 157 MPRF Micro centrifuge) at 20000 G for 20 minutes at 4° C. After centrifugation 285 μL of the supernatant was pipetted into 600 μL microtubes tubes and neutralized with 15 μL of 1M Tris-HCL buffer.
WAKO 294-62501 Human/Rat Abeta amyloid (40) kit was used for all ELISA analyses. 30 μL plasma samples or 30 μL of the cortex supernatants generated as described above were placed in 600 μL microtubes tubes on wet ice. To this 30 μL of 8M Urea (AppliChem A1049, 9025) are added to generate a 2-fold dilution. Both plasma and cortex supernatants are incubated on ice for 30 min. Standard rows were prepared from the standard peptide stock provided in the kit and standard diluent containing 1.6M Urea (200 μL 8M Urea+800 μL of standard diluent) and 0.8M Urea (400 μL 8M Urea+3600 μL Standard diluent). A serial 2-fold dilution of Aβ40 from 100 pmol/ml to 0 pmol/L was prepared for the assay.
After incubation with urea, all samples were further diluted by addition of 5 times standard diluent from the Kit. This was done by adding 240 μL Standard Diluent to 60 μL sample/urea mixture, which was then mixed well. 100 μL of each diluted sample was pipetted into designated wells of the ELISA plate in duplicates. The plate was then covered and incubated overnight at 4° C. The following day, the ELISA kit was brought to room temperature before use. The incubated plate was washed 5 times with the 20× washing solution diluted in Milli Q water. 100 μL HRP-conjugate was applied to each well, and the plate was covered and incubates at 4° C. for 1 hr. The wash was repeated again for 5 times. 100 μL 3,3′,5,5′-Tetramethylbenzidine (TMB) solution was applied to each well and the plate was covered and incubated in the dark at room temperature for 30 minutes. […]

Compound	Aβ40 reduction (brain, 10 mg/kg p.o.) [%]	Aβ40 reduction (brain, 30 mg/kg p.o.) [%]	Aβ40 reduction (plasma, 10 mg/kg p.o.) [%]	Aβ40 reduction (plasma, 30 mg/kg p.o.) [%]
COc1cnc(C(=O)Nc2ccc(F)c([C@@]3(C(F)F)N=C(N)CCC3(F)F)c2)cn1 [Compound 3, (S)—N-(3-(6-amino-2-(difluoromethyl)-3,3-difluoro-2,3,4,5-tetrahydropyridin-2-yl)-4-fluorophenyl)-5-methoxypyrazine-2-carboxamide]	24	38	39	42
COc1ccc(C(=O)Nc2ccc(F)c([C@@]3(C(F)F)N=C(N)CCC3(F)F)c2)nc1 [Compound 5, (S)—N-(3-(6-amino-2-(difluoromethyl)-3,3-difluoro-2,3,4,5-tetrahydropyridin-2-yl)-4-fluorophenyl)-5-methoxypicolinamide]	5	36	40	49
